Earlier results on one molecule are cited in US20250375409A1, “Treatment of REM Behavior Disorder” (Vanda Pharmaceuticals Inc., priority 2024, published 2025).

For data set [1] the following is noted: following an oral dose; large first pass effect.

Each structure is given as a SMILES string.

Consider `CCC(=O)NCC[C@@H]1CCc2ccc3c(c21)CCO3` [ramelteon], for which, in data set [1], the mean systemic availability entry is “less than 2%”. Further, the “RBD outcome in open label trial” value (Esaki et al., 12 patients with idiopathic RBD, 8 mg given 30 minutes before bedtime) is recorded as “trend towards improvement”. For the same molecule, where the note is “Nomura et al. 2013, 8 mg, two patients with RBD in association with Parkinsonian syndromes”, the “RBD symptoms, including the RBD severity scale (RBDSS)” value is “improvement of their RBD symptoms”. For the same molecule, the “RBD outcome in patients with Parkinson's disease” value (patients with Parkinson's disease, with or without RBD, after treatment) was “statistically significant RBD improvement”.
